Assay results reported in the supplement of paper PMC7661543.
± gives the standard deviation of the averaged measurements.

Tests used:
Experiment in all cases: relative cell number vs DMSO control (72 h) (% of DMSO); higher = less growth inhibition (more cells)
Conditions in all cases: sgRNA knockout: sgNT
ZR-75-1 = tested on: ZR-75-1
Protocol: (§1)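 QMAP-Seq: a pool of 5 breast cancer cell lines (ZR-75-1, SKBR3, HCC-38, MDA-MB-231, BT-20), each carrying 12 doxycycline-inducible Cas9 sgRNA perturbations (11 knockouts plus non-targeting sgNT), was treated with compounds for 72 h at four 10-fold doses (10 nM-10 uM or 1 nM-1 uM range). Barcodes were amplified and sequenced, and cell number was interpolated from 293T spike-in standard curves. The result is expressed as % of the median of DMSO wells. Two biological replicates.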

MDA-MB-231 = tested on: MDA-MB-231
Protocol: as §1

HCC-38 = tested on: HCC-38
Protocol: as §1

BT-20 = tested on: BT-20
Protocol: as §1

SKBR3 = tested on: SKBR3
Protocol: as §1

| Compound | relative cell number (ZR-75-1; 1 nM) | relative cell number (ZR-75-1; 10 nM) | relative cell number (ZR-75-1; 100 nM) | relative cell number (ZR-75-1; 1000 nM) | relative cell number (MDA-MB-231; 1 nM) | relative cell number (MDA-MB-231; 10 nM) | relative cell number (MDA-MB-231; 100 nM) | relative cell number (MDA-MB-231; 1000 nM) | relative cell number (HCC-38; 1 nM) | relative cell number (HCC-38; 10 nM) | relative cell number (HCC-38; 100 nM) | relative cell number (HCC-38; 1000 nM) | relative cell number (BT-20; 1 nM) | relative cell number (BT-20; 10 nM) | relative cell number (BT-20; 100 nM) | relative cell number (BT-20; 1000 nM) | relative cell number (SKBR3; 1 nM) | relative cell number (SKBR3; 10 nM) | relative cell number (SKBR3; 100 nM) | relative cell number (SKBR3; 1000 nM) | relative cell number (ZR-75-1; 10000 nM) | relative cell number (MDA-MB-231; 10000 nM) | relative cell number (HCC-38; 10000 nM) | relative cell number (BT-20; 10000 nM) | relative cell number (SKBR3; 10000 nM) |
| --- | --- | --- | --- | --- | --- | --- | --- | --- | --- | --- | --- | --- | --- | --- | --- | --- | --- | --- | --- | --- | --- | --- | --- | --- | --- |
| CC(C)(C#N)c1cc(Cn2cncn2)cc(C(C)(C)C#N)c1 [Anastrozole] | 76.6 ± 1.4 | 151 ± 25 | 100 ± 3.4 | 120 ± 17 | 107 ± 8.8 | 110 ± 75 | 121 ± 17 | 115 ± 22 | 106 ± 9.5 | 116 ± 3.1 | 103 ± 5.8 | 115.2 ± 0.88 | 112 ± 1.8 | 103 ± 50 | 116 ± 12 | 114 ± 15 | 123 ± 23 | 90.3 ± 18 | 118 ± 17 | 103 ± 13 |  |  |  |  |  |
| CCN1CCN(c2ccc(Nc3cc(N(C)C(=O)Nc4c(Cl)c(OC)cc(OC)c4Cl)ncn3)cc2)CC1 [BGJ398] |  | 77.02 ± 0.32 | 116 ± 13 | 105 ± 14 |  | 81.7 ± 12 | 83.1 ± 16 | 116 ± 2.1 |  | 93.6 ± 16 | 66.73 ± 0.28 | 60.5 ± 4.7 |  | 80.6 ± 10 | 104 ± 1.5 | 88.5 ± 15 |  | 99.1 ± 6.7 | 106 ± 32 | 67.6 ± 6.6 | 78.1 ± 26 | 65.2 ± 12 | 58.5 ± 0.79 | 82.8 ± 18 | 75 ± 18 |
| COC(=O)[C@]12CCC(C)(C)C[C@H]1[C@H]1C(=O)C=C3[C@@]4(C)C=C(C#N)C(=O)C(C)(C)[C@@H]4CC[C@@]3(C)[C@]1(C)CC2 [BardoxoloneMethyl] |  | 74.7 ± 11 | 49.3 ± 14 | 14.3 ± 2.1 |  | 109 ± 22 | 66.5 ± 37 | 16.4 ± 11 |  | 96 ± 7.2 | 99.93 ± 0.61 | 26.6 ± 3.4 |  | 73.5 ± 19 | 66.2 ± 6.3 | 16.2 ± 4 |  | 100.4 ± 0.77 | 66.6 ± 13 | 7.42 ± 0.66 | 5.42 ± 4.3 | 5.3 ± 1.9 | 5.24 ± 0.59 | 4.97 ± 2.9 | 4.14 ± 0.45 |
| Cn1c(CCCC(=O)O)nc2cc(N(CCCl)CCCl)ccc21 [Bendamustine] |  | 82.4 ± 11 | 123 ± 6.9 | 63.7 ± 27 |  | 111 ± 13 | 123 ± 10 | 95.8 ± 17 |  | 104 ± 6 | 103 ± 1.1 | 109 ± 17 |  | 90.6 ± 14 | 114 ± 25 | 112 ± 33 |  | 86.7 ± 9.2 | 115 ± 21 | 118 ± 21 | 97.9 ± 9.2 | 127 ± 3.8 | 115 ± 4.3 | 124 ± 14 | 109 ± 44 |
| C=C(C)[C@@H]1CC[C@]2(C(=O)O)CC[C@]3(C)[C@H](CC[C@@H]4[C@@]5(C)CC[C@H](O)C(C)(C)[C@@H]5CC[C@]43C)[C@@H]12 [BetulinicAcid] |  | 90.9 ± 11 | 97.1 ± 4.8 | 94.5 ± 43 |  | 74.3 ± 2.1 | 92.9 ± 11 | 69.8 ± 21 |  | 106 ± 10 | 82.2 ± 9.4 | 98 ± 32 |  | 86.7 ± 12 | 78.6 ± 3.6 | 86.4 ± 13 |  | 76.3 ± 23 | 95 ± 13 | 86 ± 5.5 | 110 ± 11 | 117 ± 24 | 96.4 ± 1.5 | 108 ± 1.7 | 96.4 ± 11 |
| C=C(c1ccc(C(=O)O)cc1)c1cc2c(cc1C)C(C)(C)CCC2(C)C [Bexarotene] |  | 97.6 ± 34 | 78.4 ± 27 | 72.2 ± 19 |  | 146 ± 83 | 73.6 ± 3.8 | 95.3 ± 16 |  | 85.51 ± 0.16 | 90.4 ± 9 | 94.9 ± 8 |  | 122 ± 11 | 119 ± 25 | 112 ± 33 |  | 107 ± 4.7 | 72.8 ± 16 | 71.6 ± 34 | 70.3 ± 5.1 | 80.2 ± 31 | 108 ± 8.4 | 137 ± 30 | 90 ± 11 |
